This is an account of results in ChEMBL document CHEMBL4342453, “Prenylated p-Terphenyls from a Mangrove Endophytic Fungus, Aspergillus candidus LDJ-5” (J Nat Prod, 2020).

One assay concerns HeLa. The experiment in a line: Cytotoxicity against human HeLa cells after 24 hrs by SRB method. A general note: Sulforhodamine B stains cellular protein and so reports cell mass.
A further assay relates to Proteus. The experiment in a line: Antibacterial activity against Proteus by conventional broth dilution assay. Type of assay: functional.
The subject of the next assay is A549. The experiment in a line: Cytotoxicity against human A549 cells after 24 hrs by SRB method. As to conditions: A549, 24 h.
The next assay relates to MGC-803. The experiment in a line: Cytotoxicity against human MGC803 cells after 24 hrs by SRB method. As to conditions: MGC-803, 24 h.
For the next assay, the system named is U-87 MG. The experiment in a line: Cytotoxicity against human U87 cells after 24 hrs by SRB method.
The subject of another assay is SH-SY5Y. The experiment in a line: Cytotoxicity against human SH-SY5Y cells after 24 hrs by SRB method.
The test system of a further assay is L02. The experiment in a line: Cytotoxicity against human L02 cells after 24 hrs by SRB method. As to conditions: L02, 24 h.
For a further assay, the system named is HCT-116. The experiment in a line: Cytotoxicity against human HCT116 cells after 24 hrs by SRB method. As to conditions: HCT-116, 24 h.
The next assay concerns K562. The experiment in a line: Cytotoxicity against human K562 cells after 72 hrs by MTT assay. As to conditions: K562, 72 h. A general note: Tetrazolium assays rely on reduction of a dye to a coloured formazan, in cell work by metabolically active cells.
In a further assay the test system is HL-60. The experiment in a line: Cytotoxicity against human HL60 cells after 72 hrs by MTT assay. Type of assay: functional, cell-based. As to conditions: HL-60, 72 h.
A further assay concerns Bel-7402. Kind of assay: Cytotoxicity against human Bel7402 cells after 24 hrs by SRB method. As to conditions: Bel-7402, 24 h.

Molecules are shown by their SMILES. Converted amounts (≈) assume the structure as drawn. Some results are limits rather than exact numbers.

What is called IC50 is the concentration at which inhibition is half-maximal. Read a low IC50 as inhibition by little substance. One may read the MIC as the lowest concentration found to suppress growth. In the case of `COc1cc(-c2ccc(O)c(O)c2)c(OC)c(O)c1-c1ccc(OCC=C(C)C)c(O)c1`, the IC50 with HeLa was found to be 2 µM; in the assay with A549, 0.4 µM; in the assay on MGC-803 it was 0.7 µM; in the assay with U-87 MG it was 13.8 µM; in the assay with SH-SY5Y it was 0.6 µM; in the assay on L02, 3.5 µM. For the same compound, the IC50 with HCT-116 is 0.5 µM; in the assay with K562 it was greater than 50 µM; with HL-60, greater than 50 µM; in the assay with Bel-7402, greater than 50 µM. Moreover, the minimum inhibitory concentration (MIC) with Proteus came out at 22 µg/mL (≈ 50.2 µM).

On to `COc1cc(-c2c(OC)cc(-c3ccccc3)c(OC)c2O)cc2c1OC(C)(C)CC2`, for which the IC50 with HeLa was 11.5 µM; in the assay on A549 it was 16.3 µM; with MGC-803, 12.5 µM; in the assay on U-87 MG, greater than 50 µM; in the assay with SH-SY5Y, 12.4 µM; with L02, 29.7 µM. For the same compound, the IC50 in the assay on HCT-116 was 16.9 µM; in the assay on K562, greater than 50 µM; with HL-60, greater than 50 µM; in the assay with Bel-7402, 12.6 µM.

For `COc1c(-c2ccccc2)cc(OC)c2c1oc1cc(O)c(OCC=C(C)C)cc12`, the IC50 was found to be 14 µM with HeLa; 19.1 µM with A549; 16.3 µM in the assay on MGC-803; 10.3 µM in the assay on U-87 MG; 17.9 µM in the assay with SH-SY5Y; 16.7 µM with L02. Further, the IC50 was 19.8 µM in the assay on HCT-116, 5 µM in the assay on K562, greater than 50 µM in the assay on HL-60 and 14.9 µM in the assay on Bel-7402.

With `COc1cc2oc3c(OC)c(-c4cc(CC=C(C)C)c(O)c(OC)c4)cc(OC)c3c2cc1O`, the IC50 is 10.1 µM with HeLa; 2.8 µM in the assay with A549; 1.4 µM with MGC-803; greater than 50 µM with U-87 MG; 2.2 µM in the assay on SH-SY5Y; 17.9 µM in the assay with L02. The IC50 in the assay on HCT-116 is 0.9 µM; in the assay with K562, greater than 50 µM; in the assay on HL-60, 3.4 µM; in the assay with Bel-7402 it was 16 µM.

In the case of `COc1ccc(-c2c(OC)cc(-c3ccc(O)c(CC=C(C)C)c3)c(OC)c2O)cc1OC`, the IC50 in the assay with HeLa was 8.5 µM; in the assay with A549 it was 7.6 µM; in the assay with MGC-803, 8.1 µM; in the assay with U-87 MG, greater than 50 µM; in the assay on SH-SY5Y, 15.6 µM; in the assay with L02, greater than 50 µM. The concentration for half-maximal inhibition (IC50) in the assay with HCT-116 is 6.2 µM; with K562, 15.9 µM; in the assay with HL-60, greater than 50 µM; with Bel-7402 it was greater than 50 µM.

Take `COc1cc(-c2c(OC)cc(-c3ccccc3)c(OC)c2O)cc(CC=C(C)C)c1O`: the IC50 with HeLa is 11.4 µM; in the assay with A549, 14.8 µM; in the assay on MGC-803, 14.5 µM; with U-87 MG, greater than 50 µM; with SH-SY5Y it was 16.7 µM; in the assay with L02 it was 24.4 µM. Moreover, the IC50 in the assay on HCT-116 was 14.7 µM; in the assay on K562 it was greater than 50 µM; in the assay with HL-60, greater than 50 µM; with Bel-7402, 11.1 µM.

With `COc1c(-c2ccccc2)cc(OC)c2c1oc1c3c(c(O)cc12)OC(C)(C)C=C3`, the half-maximal inhibitory concentration (IC50) in the assay on HeLa, in the assay with A549, with MGC-803, with U-87 MG, in the assay on SH-SY5Y and in the assay with L02 was greater than 50 µM each time. The half-inhibitory concentration (IC50) in the assay with HCT-116, with K562, in the assay with HL-60 and with Bel-7402 was greater than 50 µM throughout.

For `COc1cc2oc3c(OC)c(-c4cc(CC=C(C)C)c(O)c(OC)c4)cc(OC)c3c2cc1OC`, the IC50 in the assay on HeLa, in the assay with A549, with MGC-803, with U-87 MG, in the assay with SH-SY5Y and with L02 was greater than 50 µM each time. Moreover, the IC50 in the assay on HCT-116, in the assay on K562, with HL-60 and with Bel-7402 was greater than 50 µM each time.

On to `COc1cc(-c2c(OC)cc(-c3ccccc3)c(OC)c2O)ccc1OC/C=C(\C)CO`, for which the half-maximal inhibitory concentration (IC50) with HeLa was 8.3 µM; with A549, 10.2 µM; with MGC-803 it was 11 µM; in the assay with U-87 MG, greater than 50 µM; with SH-SY5Y, 10.4 µM; in the assay with L02, 19.9 µM. The IC50 in the assay with HCT-116 was 9.3 µM; in the assay on K562 it was greater than 50 µM; with HL-60, 7.1 µM; in the assay on Bel-7402, 12.4 µM.
